One block for each molecule: values may come before it. Activity calls are given as the source filed them. The rule behind the calls is not given here.
How the values were obtained:
[1] = Half life in mouse plasma; assay type: ADME, cell-free
[2] = Half life in human plasma; assay type: ADME, cell-free
[3] = Permeability of compound at pH 7.4 assessed as drug retention by PAMPA; assay type: ADME
[4] = Half life in simulated gastric fluid; assay type: ADME
[5] = Efflux ratio of apparent permeability across basolateral to apical side over apical to basolateral side in human Caco2 cells; assay type: ADME, cell-based; details: Caco-2
[6] = Apparent permeability of compound form basolateral to apical side in human Caco2 cells; assay type: ADME, cell-based; details: Caco-2
[7] = Apparent permeability of compound form apical to basolateral side in human Caco2 cells; assay type: ADME, cell-based; details: Caco-2
[8] = Permeability of compound at pH 7.4 by PAMPA; assay type: ADME
[9] = test system: UoC-B1; test: Antiproliferative activity against human UOCB1 assessed as reduction in cell viability after 72 hrs by CellTiter-Glo assay; assay type: functional, cell-based; details: UoC-B1, 72 h
[10] = Therapeutic index, ratio of EC50 for human BJ cells to EC50 for mouse B-ALL cells expressing wild type BCR-ABL; assay type: toxicity; details: human BJ cells versus mouse B-ALL cells expressing wild type BCR-ABL; read-out: Ratio EC50
[11] = test system: BJ; test: Antiproliferative activity against human BJ assessed as cell viability after 72 hrs by CellTiter-Glo assay; assay type: functional, cell-based
[12] = test system: B-ALL; test: Antiproliferative activity against mouse B-ALL BCR-ABL double knockout cells assessed as reduction in cell viability after 72 hrs by CellTiter-Glo assay; assay type: functional, cell-based
[13] = test system: NALM-6; test: Antiproliferative activity against human NALM6 assessed as reduction in cell viability after 72 hrs by CellTiter-Glo assay; assay type: functional, cell-based; details: NALM-6, 72 h
[14] = test system: B-ALL; test: Antiproliferative activity against mouse B-ALL cells expressing wild type BCR-ABL assessed as reduction in cell viability after 72 hrs by CellTiter-Glo assay; assay type: functional, cell-based
[15] = test system: SUP-B15; test: Antiproliferative activity against human SUP-B15 assessed as reduction in cell viability after 72 hrs by CellTiter-Glo assay; assay type: functional, cell-based; details: SUP-B15, 72 h
[16] = test system: KOPN-8; test: Antiproliferative activity against human KOPN8 assessed as reduction in cell viability after 72 hrs by CellTiter-Glo assay; assay type: functional, cell-based; details: KOPN-8, 72 h
[17] = test system: SUP-B15; test: Cell cycle arrest in human SUP-B15 cells assessed as accumulation of cells at G1/G0 phase at 5 uM after 24 hrs by propidium iodide staining-based flow cytometric analysis; assay type: functional
[18] = test system: SUP-B15; test: Induction of apoptosis in human SUP-B15 cells assessed as late apoptotic cells level after 24 hrs by Annexin V and propidium iodide staining based flow cytometry (reference value: 83%); assay type: functional
[19] = Half life in human microsomes; assay type: ADME, Microsome
[20] = test system: B-ALL; test: Induction of apoptosis in mouse B-ALL BCR-ABL double knockout cells assessed as increase in caspase 3/7 activity after 24 hrs by caspase-Glo 3/7 reagent based luminescence assay; assay type: functional, cell-based
[21] = test system: SUP-B15; test: Induction of apoptosis in human SUP-B15 cells assessed as decrease in cell viability at 5 uM after 24 hrs by Annexin V/propidium iodide staining-based flow cytometric analysis; assay type: functional
[22] = test system: SUP-B15; test: Induction of apoptosis in human SUP-B15 cells assessed as increase in caspase 3/7 activity after 24 hrs by caspase-Glo 3/7 reagent based luminescence assay; assay type: functional, cell-based
[23] = Intrinsic clearance in mouse microsomes; assay type: ADME, Microsome
[24] = Intrinsic clearance in human microsomes; assay type: ADME, Microsome
[25] = test system: MDA-MB-231; test: Cytotoxicity against human MDA-MB-231 cells up to 30 uM after 24 hrs by propidium iodide staining-based fluorescence assay; assay type: functional, cell-based
[26] = test system: SUP-B15; test: Induction of apoptosis in human SUP-B15 cells assessed as late apoptotic cells level after 24 hrs by Annexin V and propidium iodide staining based flow cytometry (reference value: 13.5%); assay type: functional
[27] = Half life in mouse microsomes; assay type: ADME, Microsome
[28] = test system: MDA-MB-231; test: Cytotoxicity against human MDA-MB-231 cells at 30 uM after 24 hrs by propidium iodide staining-based fluorescence assay; assay type: functional, cell-based
[29] = test system: SUM149PT; test: Cytotoxicity against human SUM149 cells at 1 uM after 24 hrs by propidium iodide staining-based fluorescence assay relative to control; assay type: functional, cell-based
[30] = test system: SUP-B15; test: Induction of apoptosis in human SUP-B15 cells assessed as decrease in cell viability at […] after 24 hrs by ApoTox-Glo triplex assay; assay type: functional, cell-based
[31] = test system: KOPN-8; test: Cell cycle arrest in human KOPN8 cells at 5 uM after 24 hrs by propidium iodide staining-based flow cytometric analysis; assay type: functional
[32] = test system: K562; test: Antiproliferative activity against human K562 assessed as reduction in cell viability after 72 hrs by CellTiter-Glo assay; assay type: functional, cell-based; details: K562, 72 h
[33] = test system: KOPN-8; test: Cell cycle arrest in human KOPN8 cells assessed as increase in accumulation of cells at S phase at 5 uM after 24 hrs by propidium iodide staining-based flow cytometric analysis; assay type: functional
[34] = test system: SUP-B15; test: Cytotoxicity in human SUP-B15 cells assessed as decrease in cell viability after 24 hrs by bis-AAF-RF110 dye based assay; assay type: functional
[35] = test system: KOPN-8; test: Induction of apoptosis in human KOPN8 cells assessed as decrease in cell viability at 5 uM after 24 hrs by Annexin V/propidium iodide staining-based flow cytometric analysis; assay type: functional
[36] = test system: MV4-11; test: Antiproliferative activity against human MV411 assessed as reduction in cell viability after 72 hrs by CellTiter-Glo assay; assay type: functional, cell-based; details: MV4-11, 72 h
[37] = test system: KOPN-8; test: Induction of apoptosis in human KOPN8 cells assessed as late apoptotic cells level after 24 hrs by Annexin V and propidium iodide staining based flow cytometry (reference value: 2%); assay type: functional
[38] = test system: KOPN-8; test: Induction of apoptosis in human KOPN8 cells assessed as late apoptotic cells level after 24 hrs by Annexin V and propidium iodide staining based flow cytometry (reference value: 96.4%); assay type: functional

Compound: O=C(O)CCCc1ccc(N(CCCl)CCCl)cc1 [CHLORAMBUCIL]
- half-life [4]: 15.3 h

Compound: NC(=O)N1c2ccccc2C=Cc2ccccc21 [CARBAMAZEPINE]
- permeability [3]: 21.9%
- efflux ratio [5]: 0.8
- Papp B→A [6]: 41.8 ×10⁻⁶ cm/s
- Papp A→B [7]: 52.4 ×10⁻⁶ cm/s
- Papp ([8]; read-out: Peff): 266 ×10⁻⁶ cm/s

Compound: COc1ccc(-c2[nH]nc(C)c2-c2ccc(OC)c(O)c2)c(O)c1
- EC50 [9]: 6.1 µM
- selectivity ratio [10]: > 5
- EC50 [11]: > 43.3 µM
- EC50 [12]: 28.9 µM
- EC50 [13]: > 21.6 µM
- EC50 [14]: 8.53 µM
- EC50 [15]: > 43.3 µM
- EC50 [16]: 34.6 µM

Compound: O=C(c1cc(-c2csc(-c3ccc(O)cc3)n2)c[nH]1)N1CCCC1
- EC50 [9]: > 43.3 µM
- selectivity ratio [10]: > 11
- EC50 [11]: > 43.3 µM
- EC50 [12]: > 43.3 µM
- EC50 [13]: > 43.3 µM
- EC50 [14]: 3.98 µM
- EC50 [15]: > 43.3 µM
- EC50 [16]: > 43.3 µM

Compound: COc1cc(-c2cc3ccccc3[nH]2)[nH]c1/C=C1\N=C(C)C=C1C
- EC50 [9]: 1.49 to 1.5 µM
- selectivity ratio [10]: 7
- EC50 [11]: 8.71 µM
- EC50 [12]: 12.5 µM
- EC50 [13]: 1.07 µM
- EC50 [14]: 1.24 µM
- EC50 [15]: 25.9 µM
- EC50 [16]: 14.7 µM

Compound: CC(C)C(=O)Nc1ccc2oc(-c3ccc(C(C)(C)C)cc3)nc2c1
- Activity [17]: Active
- Activity [18]: 69.2%
- half-life [19]: 0.86 h
- Activity [20]: inactive
- Activity [21]: Active
- Activity [22]: Active
- CLint scaled [23]: 16.8 mL/min/kg
- permeability [3]: 53.6%
- efflux ratio [5]: 0.31
- CLint scaled [24]: 24.3 mL/min/kg
- EC50 [9]: > 43.3 µM
- Activity [25]: inactive
- Activity [26]: 6.3%
- half-life [27]: 3.41 h
- selectivity ratio [10]: > 9
- Activity [28]: Active
- Activity [29]: Active
- Activity [30]: Active
- Activity [31]: inactive
- EC50 [11]: > 43.3 µM
- EC50 [32]: 8.36 µM
- Papp B→A [6]: 2.26 ×10⁻⁶ cm/s
- half-life [1]: > 48 h
- Activity [33]: Active
- half-life [2]: > 48 h
- half-life [4]: > 48 h
- Activity [34]: Active
- Activity [35]: Active
- EC50 [12]: > 43.3 µM
- EC50 [36]: 0.603 µM
- Activity [37]: 4.8%
- Papp A→B [7]: 7.26 ×10⁻⁶ cm/s
- EC50 [13]: 0.604 µM
- EC50 [14]: 4.65 µM
- Peff [8]: 1916.4 ×10⁻⁶ cm/s
- EC50 [15]: 1.32 µM
- Activity [38]: 94.4%
- EC50 [16]: 1.11 µM

The remaining lines, values ahead:

- half-life [1]: 2.11 h
- half-life [2]: 0.42 h
Compound: CC1CC(OC(=O)C(O)c2ccccc2)CC(C)(C)N1C (centres undefined) [EUCATROPINE]

- permeability [3]: 0%
Compound: CNC(=C[N+](=O)[O-])NCCSCc1ccc(CN(C)C)o1 [RANITIDINE]

- efflux ratio [5]: 21.1
- Papp B→A [6]: 13.1 ×10⁻⁶ cm/s
- Papp A→B [7]: 0.621 ×10⁻⁶ cm/s
Compound: CC[C@]1(O)C[C@@H]2CN(CCc3c([nH]c4ccccc34)[C@@](C(=O)OC)(c3cc4c(cc3OC)N(C)[C@H]3[C@@](O)(C(=O)OC)[C@H](OC(C)=O)[C@]5(CC)C=CCN6CC[C@]43[C@@H]65)C2)C1 [VINBLASTINE]

Reference: ChEMBL document CHEMBL4422630, “Identification of substituted 5-membered heterocyclic compounds as potential anti-leukemic agents” (Eur J Med Chem, 2019)
